The text below walks through data of patent US20110052713A1, “REPAIRING DAMAGED NERVOUS SYSTEM TISSUE WITH NANOPARTICLES” (priority 2008, published 2011).

Like-named read-outs stand apart in the source and are kept apart here.

Data set [1] deals with PC 12 cells. Briefly: MTT assay after acrolein exposure (MSN study). The data set is classed as cell-based. To be noted: Rattus norvegicus, read-out: MTT activity (absorbance), % of control values. On the procedure:
(§1) Exposure to 100 μM acrolein can induce the death of >80% of a population of PC 12 Cells by a few hours, and 100% by 8-12 hours of observation. […] Typically, populations of cells with acrolein-mediated damage show a significant reduction in MTT activity due to the collapse of mitochondria function.
In general terms: Formazan colour is commonly taken as a measure of viable cells.

The test system of data set [2] is PC 12 cells. Briefly: LDH release assay after acrolein exposure (MSN study). Format: cell-based. The following applies: Rattus norvegicus, PC-12, 0.25 h; 100 μM acrolein; treatment added with 15 min delay; acrolein row = acrolein alone; read-out: LDH release, % of control values. On the procedure:
as §1

The test system of data set [3] is PC 12 cells. Put plainly: MTT assay after acrolein exposure (chitosan nanoparticles). Format: cell-based. The protocol: (§2) In one example, functional tests (MTT and LDH exclusion tests) were used to evaluate the response to different chitosan formulations in PC 12 cells suffering from acrolein exposure. We compared the effectiveness of these formulations using entire cell populations in six different groups: 1) a control group, (2) a 100 μM acrolein-exposed group, (3) a 100 μM acrolein-exposed and Chi-DS nanoparticle—treated group, (4) a 100 μM acrolein-exposed and Chi-DS/Hy nanoparticle—treated group, (5) a 100 μM acrolein-exposed and Chi-TPP nanoparticle—treated group, and (6) a 100 μM acrolein-exposed and Chi-TPP/Hy nanoparticle—treated group. First, we tested whether chitosan nanoparticles were capable of sufficiently reducing acrolein cytotoxicity using the MTT assay. In all experiments, the various types of nanoparticles were added to the cell medium after 15 min following the exposure to acrolein. As a consequence of acrolein exposure, approximately 98% of the cells in culture died within a couple of hours. Acrolein-induced cytotoxicity was expressed as a percentage of MTT activity, which is, as explained above, an indicator of aberrant mitochondria functioning. Thus, MTT activity subsequent to 100 acrolein exposure was decreased to 3.5±2.9% of controls values. […] Even more significant increase was observed after application of hydralazine-entrapped chitosan nanoparticles. […]

The subject of data set [4] is PC 12 cells. Briefly: LDH release after acrolein exposure (chitosan nanoparticles). Format: cell-based. To be noted: Rattus norvegicus, 100 μM acrolein, post-treatment with nanoparticles, acrolein row = acrolein alone, read-out: LDH release, % of control values. On the procedure: as §2
For orientation: LDH in the medium is a marker of cell lysis.

The test system of data set [5] is PC 12 cells. Put plainly: Live-dead cell assay after acrolein exposure. Format: cell-based. To be noted: 5 hr, control cells 90±7%.
Data set [6] deals with acrolein poisoned cultures. Briefly: ROS level in acrolein poisoned cultures. Format: cell-based. To be noted: 100 μM acrolein; acrolein row = acrolein alone; read-out: level of ROS, % of control values.
The subject of data set [7] is PC 12 cells. To be noted: 100 μM acrolein, cited from earlier work.
The subject of data set [8] is voltage gated fast potassium channels. The following applies: paralyzed persons; cited from earlier work.

`NNc1nncc2ccccc12` [hydralazine]: the activity at 500 µM with PC 12 cells [1] worked out at 53.8 ± 18.6%.
As for `C=CC=O` [acrolein], the activity at 100 µM in the data set with PC 12 cells [1] was determined as 11 ± 10.2%; in the data set with PC 12 cells [2], 168 ± 15.4%; in the data set on PC 12 cells [3] (Rattus norvegicus, PC-12, 100 μM acrolein, nanoparticles added 15 min after, after 5 hr, acrolein row = acrolein alone, read-out: MTT activity / survival, % of control values), 3.5 ± 2.9%; in the data set on PC 12 cells [4], 178 ± 25.4%; in data set [6], 120 ± 14%. Further, in the data set on PC 12 cells [3] (acrolein exposure, within a couple of hours), the “cells in culture that died” value is given as “approximately 98%”. For the same molecule, the “cell survival (live-dead cell assay)” value with PC 12 cells [5] worked out at 30±8%. Further, the figures for the “death of cell population” value with PC 12 cells [7] (by 8-12 hours of observation) and with PC 12 cells [7] (by a few hours) were 100% and > 80%, respectively.
Take `Nc1ccncc1` [4-Aminopyridine]: the “share of treated population with clinically meaningful recoveries of function” value in data set [8] is listed as “about 30%”.
